Test results: patent US20210251237A1, “PLATFORM FOR DEVELOPING SOIL-BORNE PLANT PATHOGEN INHIBITING MICROBIAL CONSORTIA” (priority 2018, published 2021)
Read-outs that look alike come from different tables or passages of the source. Marks after values point to notes of the source that are not given here.

Tests used:
Rhizoctonia solani = assay: Pathogen suppressive activity plate assay (zone of inhibition); assay type: cell-based; conditions: for zone of inhibition: Table 1, pathogen isolate P6; for mean inhibitory zone size: Table 4
Sclerotinia sclerotiorum = assay: as above; assay type: cell-based; conditions: for zone of inhibition: Table 1, pathogen isolate P19; for mean inhibitory zone size: Table 4
Fusarium oxysporum = assay: as above; assay type: cell-based; conditions: for zone of inhibition: Table 1; for mean inhibitory zone size: Table 4
Fusarium graminearum = assay type: cell-based; design: key to pathogen suppression (symbol): + refers to instances where there is some evidence for inhibition immediately over the surface of the dotted strain, but no clear inhibition zone beyond the dotted colony's edge; conditions: for zone of inhibition: Table 1; for mean inhibitory zone size / pathogen suppression (symbol): Table 4
Phytophthora medicaginis = assay: Pathogen suppressive activity plate assay (zone of inhibition); assay type: cell-based; conditions: for zone of inhibition: Table 1; for mean inhibitory zone size: Table 4
Phytophthora sojae = assay: as above; assay type: cell-based; conditions: for zone of inhibition: Table 1, pathogen isolate P52; for mean inhibitory zone size: Table 4, pathogen target isolate P52
[1] = tested on: Pythium ultimum var. sporangiferum; assay: as above; assay type: cell-based; conditions: for zone of inhibition: Table 1, pathogen isolate P58; for mean inhibitory zone size: Table 4, pathogen target isolate P58
F. culmorum = assay: as above; assay type: cell-based; conditions: Table 1; pathogen isolate P61
Fusarium virguliforme = assay: as above; assay type: cell-based; conditions: Table 4
[2] = tested on: clinical antimicrobials (antibiotic discs); assay: Antibiotic disc resistance/susceptibility assay of microbial isolates; assay type: cell-based
[3] = tested on: GS1, PS1 and PS3 (overlaid isolates); assay: Mutual inhibition activity among GS1, PS1 and PS3; assay type: cell-based; conditions: for inhibition zone size: mild inhibition
Experimental: Each of the microbes—GS1, PS1 and PS3—was grown in the presence of every other isolate (i.e., GS1 with PS1; GS1 with PS3; and PS1 with PS3). Briefly, isolates GS1, PS1 and PS3 were dotted onto the center of individual petri dishes and allowed to grow for 3 days. Dotted isolates were then killed by placing petri dishes over a chloroform-filled watch glass in a safety cabinet for one hour. Subsequently, overlays of the other two isolates spread across the entire petri dish surface. In this way, each isolate was tested as a potential inhibitor (dotted isolates) in combination with every isolate as a target (overlaid isolates). The growth of the microbial isolates was evaluated for the presence or absence of zones of inhibition at the interphase between the bacterial isolates. […] Results from this analysis show the potential for isolates to coexist without inhibiting one another.

[4] = tested on: GS1 and PS3 (inhibition zones on Bacillus lawns); assay: Antimicrobial signaling/responsiveness among GS1, PS1, PS3; assay type: cell-based; conditions: increased inhibition zones around GS1 and PS3 vs single inoculant controls
[5] = tested on: random collection of Streptomyces from field soils; assay: Enhancement of antibiotic production in field-soil Streptomyces; assay type: cell-based
potato scab = assay: Potato field trials: percent scab control; assay type: in vivo; design: concentration or dose not given beside the values

Streptomyces sp. 3211.1 [PS1] was tested, and the zone of inhibition (Rhizoctonia solani) was 0 mm, the “mean inhibitory zone size” value (Rhizoctonia solani; pathogen target isolate P5) was 0 mm and the “mean inhibitory zone size” value (Rhizoctonia solani; pathogen target isolate P6) was 0 mm. For the same substance, the “mean inhibitory zone size” value (Rhizoctonia solani; pathogen target isolate P12) was 0 mm, the zone of inhibition (Sclerotinia sclerotiorum) was 0 mm and the “mean inhibitory zone size” value (Sclerotinia sclerotiorum; pathogen target isolate P17) was 12.8 mm. The “mean inhibitory zone size” value (Sclerotinia sclerotiorum; pathogen target isolate P18) was 3.25 mm, the “mean inhibitory zone size” value (Sclerotinia sclerotiorum; pathogen target isolate P19) was 0 mm and the zone of inhibition (Fusarium oxysporum; pathogen isolate P27) was 0 mm. The zone of inhibition (Fusarium oxysporum; pathogen isolate P29) was 0 mm, the “mean inhibitory zone size” value (Fusarium oxysporum; pathogen target isolate P25) was 0 mm and the “mean inhibitory zone size” value (Fusarium oxysporum; pathogen target isolate P26) was 0 mm. The “mean inhibitory zone size” value (Fusarium oxysporum; pathogen target isolate P28) was 0 mm, the “mean inhibitory zone size” value (Fusarium oxysporum; pathogen target isolate P29) was 0 mm and the zone of inhibition (Fusarium graminearum; pathogen isolate P31) was 3.05 mm. The zone of inhibition (Fusarium graminearum; pathogen isolate P34) was 0 mm, the “mean inhibitory zone size” value (Fusarium graminearum; pathogen target isolate P30) was 0 mm and the “mean inhibitory zone size” value (Fusarium graminearum; pathogen target isolate P31) was 3.05 mm. For the same substance, the “mean inhibitory zone size” value (Fusarium graminearum; pathogen target isolate P32) was 0 mm, the “mean inhibitory zone size” value (Fusarium graminearum; pathogen target isolate P33) was 0 mm and the “mean inhibitory zone size” value (Fusarium graminearum; pathogen target isolate P34) was 0 mm. For the same substance, the “mean inhibitory zone size” value (Fusarium graminearum; pathogen target isolate P35) was 0 mm, the zone of inhibition (Phytophthora medicaginis; pathogen isolate P43) was 0 mm and the zone of inhibition (Phytophthora medicaginis; pathogen isolate P44) was 0 mm. The “mean inhibitory zone size” value (Phytophthora medicaginis; pathogen target isolate P43) was 0 mm, the “mean inhibitory zone size” value (Phytophthora medicaginis; pathogen target isolate P44) was 0 mm and the zone of inhibition (Phytophthora sojae) was 0 mm. For the same substance, the “mean inhibitory zone size” value (Phytophthora sojae) was 0 mm, the zone of inhibition [1] was 0 mm and the “mean inhibitory zone size” value [1] was 0 mm. The zone of inhibition (F. culmorum) was 0 mm, the “mean inhibitory zone size” value (Fusarium virguliforme; pathogen target isolate P20) was 0 mm and the “mean inhibitory zone size” value (Fusarium virguliforme; pathogen target isolate P21) was 0 mm. For the same substance, the “mean inhibitory zone size” value (Fusarium virguliforme; pathogen target isolate P22) was 0 mm, the “mean inhibitory zone size” value (Fusarium virguliforme; pathogen target isolate P23) was 3.58 mm and the Antibiotic resistance characteristics ([2]; Amoxicillin Clavulanate) was “MR (MR-moderately resistant (1-5 mm))”. For the same substance, the Antibiotic resistance characteristics ([2]; Chloramphenicol) was “R (R-resistant (0 inhibition zone))”, the Antibiotic resistance characteristics ([2]; Erythromycin) was “MR (MR-moderately resistant (1-5 mm))” and the Antibiotic resistance characteristics ([2]; Kanamycin) was “S (S-susceptible (>10 mm))”. For the same substance, the Antibiotic resistance characteristics ([2]; Novobiocin 5) was “MR (MR-moderately resistant (1-5 mm))”, the Antibiotic resistance characteristics ([2]; Novobiocin 30) was “MS (MS-moderately susceptible (6-10 mm))” and the Antibiotic resistance characteristics ([2]; Penicillin) was “R (R-resistant (0 inhibition zone))”. For the same substance, the Antibiotic resistance characteristics ([2]; Rifampin) was “MR (MR-moderately resistant (1-5 mm))”, the Antibiotic resistance characteristics ([2]; Streptomycin) was “MS (MS-moderately susceptible (6-10 mm))” and the Antibiotic resistance characteristics ([2]; Tetracycline) was “MR (MR-moderately resistant (1-5 mm))”. The Antibiotic resistance characteristics ([2]; Vancomycin 5) was “MS (MS-moderately susceptible (6-10 mm))”, the Antibiotic resistance characteristics ([2]; Vancomycin 30) was “MS (MS-moderately susceptible (6-10 mm))” and the inhibition zone size ([3]; against GS1) was less than 5 mm. For the same substance, the inhibition zone size ([3]; against GS3 (so in the source)) was less than 5 mm, the “effect on antibiotic production by the two other isolates” value [4] was “enhance antibiotic production” and the “more effective than other isolates in enhancing antibiotic production” value [5] was roughly 50%. For the same substance, the “share of a random collection of Streptomyces whose antibiotic production is enhanced” value [5] was 30%.

For Brevibacillus laterosporus [PS3], the zone of inhibition (Rhizoctonia solani) was 12.25 mm, the “mean inhibitory zone size” value (Rhizoctonia solani; pathogen target isolate P5) was 3.25 mm and the “mean inhibitory zone size” value (Rhizoctonia solani; pathogen target isolate P6) was 1.7875 mm. The “mean inhibitory zone size” value (Rhizoctonia solani; pathogen target isolate P12) was 1.5 mm, the zone of inhibition (Sclerotinia sclerotiorum) was 11.48 mm and the “mean inhibitory zone size” value (Sclerotinia sclerotiorum; pathogen target isolate P16) was 4.517 mm. The “mean inhibitory zone size” value (Sclerotinia sclerotiorum; pathogen target isolate P17) was 5.567 mm, the “mean inhibitory zone size” value (Sclerotinia sclerotiorum; pathogen target isolate P18) was 4.975 mm and the “mean inhibitory zone size” value (Sclerotinia sclerotiorum; pathogen target isolate P19) was 5.8 mm. For the same substance, the zone of inhibition (Fusarium oxysporum; pathogen isolate P27) was 0 mm, the zone of inhibition (Fusarium oxysporum; pathogen isolate P29) was 0 mm and the “mean inhibitory zone size” value (Fusarium oxysporum; pathogen target isolate P25) was 3.725 mm. The “mean inhibitory zone size” value (Fusarium oxysporum; pathogen target isolate P26) was 4.1 mm, the “mean inhibitory zone size” value (Fusarium oxysporum; pathogen target isolate P28) was 5.6 mm and the “mean inhibitory zone size” value (Fusarium oxysporum; pathogen target isolate P29) was 4.225 mm. The zone of inhibition (Fusarium graminearum; pathogen isolate P31) was 10.35 mm, the zone of inhibition (Fusarium graminearum; pathogen isolate P34) was 14.58 mm and the “pathogen suppression (symbol)” value (Fusarium graminearum; pathogen target isolate P30) was “+**”. For the same substance, the “pathogen suppression (symbol)” value (Fusarium graminearum; pathogen target isolate P31) was “+”, the “pathogen suppression (symbol)” value (Fusarium graminearum; pathogen target isolate P32) was “+” and the “pathogen suppression (symbol)” value (Fusarium graminearum; pathogen target isolate P33) was “+”. For the same substance, the “pathogen suppression (symbol)” value (Fusarium graminearum; pathogen target isolate P34) was “+”, the “pathogen suppression (symbol)” value (Fusarium graminearum; pathogen target isolate P35) was “+” and the zone of inhibition (Phytophthora medicaginis; pathogen isolate P43) was 12.55 mm. The zone of inhibition (Phytophthora medicaginis; pathogen isolate P44) was 6.53 mm, the “mean inhibitory zone size” value (Phytophthora medicaginis; pathogen target isolate P43) was 5.6 mm and the “mean inhibitory zone size” value (Phytophthora medicaginis; pathogen target isolate P44) was 9.125 mm. The zone of inhibition (Phytophthora sojae) was 0 mm, the “mean inhibitory zone size” value (Phytophthora sojae) was 10.3 mm and the zone of inhibition [1] was 3.73 mm. The “mean inhibitory zone size” value [1] was 6.6 mm, the zone of inhibition (F. culmorum) was 5.48 mm and the “mean inhibitory zone size” value (Fusarium virguliforme; pathogen target isolate P20) was 5.2 mm. The “mean inhibitory zone size” value (Fusarium virguliforme; pathogen target isolate P21) was 9.5 mm, the “mean inhibitory zone size” value (Fusarium virguliforme; pathogen target isolate P22) was 8.975 mm and the “mean inhibitory zone size” value (Fusarium virguliforme; pathogen target isolate P23) was 6.175 mm. For the same substance, the Antibiotic resistance characteristics ([2]; Amoxicillin Clavulanate) was “MR (MR-moderately resistant (1-5 mm))”, the Antibiotic resistance characteristics ([2]; Chloramphenicol) was “MS (MS-moderately susceptible (6-10 mm))” and the Antibiotic resistance characteristics ([2]; Erythromycin) was “S (S-susceptible (>10 mm))”. The Antibiotic resistance characteristics ([2]; Kanamycin) was “S (S-susceptible (>10 mm))”, the Antibiotic resistance characteristics ([2]; Novobiocin 5) was “S (S-susceptible (>10 mm))” and the Antibiotic resistance characteristics ([2]; Novobiocin 30) was “S (S-susceptible (>10 mm))”. For the same substance, the Antibiotic resistance characteristics ([2]; Rifampin) was “MR (MR-moderately resistant (1-5 mm))”, the Antibiotic resistance characteristics ([2]; Streptomycin) was “S (S-susceptible (>10 mm))” and the Antibiotic resistance characteristics ([2]; Tetracycline) was “MR (MR-moderately resistant (1-5 mm))”. The Antibiotic resistance characteristics ([2]; Vancomycin 5) was “MS (MS-moderately susceptible (6-10 mm))”, the Antibiotic resistance characteristics ([2]; Vancomycin 30) was “S (S-susceptible (>10 mm))” and the “inhibition of the other members of the combination” value [3] was “Neither isolate PS3 nor GS3 inhibit”. For the same substance, the “Percent Control (reduction in scab severity vs non-inoculated plots)” value (potato scab; experiment BPP, disease on non-inoculated tubers 22.2) was 27%, the “Percent Control (reduction in scab severity vs non-inoculated plots)” value (potato scab; experiment BSP, disease on non-inoculated tubers 24.3) was 40% and the “Percent Control (reduction in scab severity vs non-inoculated plots)” value (potato scab; experiment BWP, disease on non-inoculated tubers 26.7) was 30%. For the same substance, the “Percent Control (reduction in scab severity vs non-inoculated plots)” value (potato scab; experiment RPP, disease on non-inoculated tubers 15.6) was 23%, the “Percent Control (reduction in scab severity vs non-inoculated plots)” value (potato scab; experiment RSCRG1, disease on non-inoculated tubers 28.1) was 34% and the “Percent Control (reduction in scab severity vs non-inoculated plots)” value (potato scab; experiment RSP, disease on non-inoculated tubers 8.8) was 42%.
